Laboratory results from PMC7287031 (Pharmacology Research & Perspectives, 2020).

Experiments:
[1] = In vitro plasma protein binding (ultrafiltration), human; type: in vitro ADME; settings: plasma, 10-10 000 ng/mL
Protocol: (§1) Stock solutions were spiked into plasma to achieve the intended concentrations. After incubation for 1 hour at 37°C under constant gentle agitation, the spiked plasma samples (n = 3) were centrifuged (2000 g, 10 min, 37°C) in pre‐warmed Centrifree devices. Total radioactivity was determined in the ultrafiltrate (Cu, concentration of unbound compound) and in the sample introduced into the reservoir before ultrafiltration (Cp). The unbound (fu) and the bound (fb) fraction in plasma were calculated as follows: fu (%) = Cu/Cp × 100; fb (%) = 100‐Fu (%).

plasma protein = experiment: as above; type: in vitro ADME; settings: rat, dog
Protocol: as §1

[2] = Placental transfer (fetal vs maternal plasma), rabbit embryofetal development study; type: in vivo; settings: female, fetal plasma (relative to maternal plasma), rabbits, 3 hours post dose, Day 20 postcoitum, read-out: Fetal plasma concentration as % of maternal plasma concentration
Rat milk excretion study = type: in vivo; settings: female, milk (relative to plasma), lactating rats, read-out: milk exposure (AUCinf) relative to plasma exposure
Protocol: Metabolite profiling was conducted on plasma, urine, bile, and feces samples in the rat and dog ADME studies, and further metabolite profiling on plasma and milk was conducted in a dedicated rat milk excretion study.
Plasma samples obtained from these studies were extracted with equal volumes of acetonitrile. Additional extractions of the protein pellet with acetonitrile and/or acetone were conducted as needed to maximize radioactivity recovery. Feces samples were initially extracted with two to four volumes of acetonitrile. Additional extractions of the pellet following centrifugation and removal of supernatant were conducted with acetonitrile and/or acetone as needed to maximize radioactivity recovery. Urine and bile samples were analyzed directly following centrifugation. Radioactivity recoveries following the centrifugation step were measured by LSC. Milk samples were extracted with two volumes of acetonitrile, following centrifugation and removal of supernatant, the pellets were re‐suspended in 100 µL of water and re‐extracted with 200 µL acetonitrile.

[3] = tested on: heat-treated human liver microsomes (Homo sapiens); experiment: Enzyme kinetics in heat-treated HLM (FMO inactivation); type: in vitro ADME; settings: heated vs non-heated control HLM
Protocol: (§2) In vitro incubations were carried out in 100‐mM potassium phosphate buffer (pH 7.4) and 5‐mM MgCl2 with a total volume of 200 µL. Substrate and either human liver microsomes (HLM, BD Biosciences, mixed gender pool of n = 50) or recombinant human enzymes (BD Biosciences) were added and pre‐incubated for 3 minutes at 37°C. The reaction was started by addition of a fresh solution of NADPH (1 mmol/L final concentration). The samples were incubated at 37°C with agitation of 500 rpm. For incubations with CYP2A6, CYP2C9, CYP2C18, and CYP4A11, the phosphate buffer was replaced by TRIS buffer (100 mmol/L, pH 7.4) and for flavin‐containing monooxygenases (FMOs), a glycine buffer (50 mM, pH 9.5) was used.
(§3) The enzymatic reaction was stopped and the protein was precipitated by addition of an equal volume of methanol. After 30 min at −80°C, the samples were centrifuged at 30'000 x g for 15 min. The supernatant was withdrawn. Aliquots were analyzed by LSC and the supernatant was diluted with water to obtain a final solution containing less than 20% of the organic solvent. For samples of low substrate concentration, supernatants were evaporated to dryness under nitrogen, then re‐suspended in water containing less than 20% of methanol. Samples were analyzed by HPLC combined with radiodetection. […]

[4] = molecular target: heat-treated human liver microsomes (Homo sapiens, UniProt P08684); experiment: as above; type: in vitro ADME; settings: human, microsomes
Protocol: as §2, §3

[5] = Kinetic analysis of ribociclib metabolite formation in HLM and enzyme contribution; type: in vitro ADME, human; settings: both sexes, human, pooled human liver microsomes, pH 7.4; HLM, sum of metabolite formation; read-out: CLint, Total of all pathways
Protocol: as §2
(§4) The enzymatic reaction was stopped and the protein was precipitated by addition of an equal volume of methanol. […] The supernatant was withdrawn. Aliquots were analyzed by LSC and the supernatant was diluted with water to obtain a final solution containing less than 20% of the organic solvent. For samples of low substrate concentration, supernatants were evaporated to dryness under nitrogen, then re‐suspended in water containing less than 20% of methanol. Samples were analyzed by HPLC combined with radiodetection.
(§5) Km and Vmax parameters were calculated by using SigmaPlot Version 8.0, Enzyme Kinetics module Version 1.1 software (SPSS Science Inc, Chicago, IL, USA). The intrinsic clearance was calculated by the equation: CLint = Vmax/Km.
(§6) The intrinsic clearances (Vmax/Km) of each pathway were determined by enzyme kinetics.

CYP3A4 = experiment: as above; type: in vitro ADME, human; settings: both sexes, human, pooled human liver microsomes, pH 7.4; HLM; read-out: CLint attributed to CYP3A4
Protocol: as §2, §4, §5, §6

FMO3 = experiment: as above; type: in vitro ADME, human; settings: both sexes, human, pooled human liver microsomes, pH 7.4; HLM; read-out: CLint attributed to FMO3
Protocol: as §2, §4, §5, §6

human liver microsomes = experiment: as above; type: in vitro ADME; settings: metabolite formation kinetics
Protocol: as §2, §4, §5, §6

[6] = Integrated estimation of ribociclib elimination pathways in humans; design: species or system human
[7] = human estimate based on rat ADME data

heat-treated human liver microsomes, sequence (P08684 2-503): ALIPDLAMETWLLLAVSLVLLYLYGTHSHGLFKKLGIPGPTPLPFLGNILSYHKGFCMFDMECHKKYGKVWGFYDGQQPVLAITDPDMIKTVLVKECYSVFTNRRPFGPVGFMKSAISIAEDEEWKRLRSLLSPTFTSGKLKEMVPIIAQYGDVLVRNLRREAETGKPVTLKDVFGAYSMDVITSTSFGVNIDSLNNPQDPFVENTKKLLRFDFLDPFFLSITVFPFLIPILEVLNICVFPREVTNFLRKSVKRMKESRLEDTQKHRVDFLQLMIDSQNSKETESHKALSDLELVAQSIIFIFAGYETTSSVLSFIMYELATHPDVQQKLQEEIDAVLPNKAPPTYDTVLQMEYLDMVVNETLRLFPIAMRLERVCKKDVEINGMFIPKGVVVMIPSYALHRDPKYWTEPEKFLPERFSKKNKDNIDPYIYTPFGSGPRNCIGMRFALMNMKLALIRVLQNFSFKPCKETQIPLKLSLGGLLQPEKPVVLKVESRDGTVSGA
heat-treated human liver microsomes (Homo sapiens), sequence (P08684 2-503): as above

CN(C)C(=O)c1cc2cnc(Nc3ccc(N4CCNCC4)cn3)nc2n1C1CCCC1 [ribociclib, Ribociclib]
fraction unbound at 1 h [1]: 0.3 ± 0.02
difference in unbound fraction in plasma between species (plasma protein): up to 1.7 fold
Kp at 3 h [2]: 0.06
Kp (Rat milk excretion study): 3.6
FMO metabolism as share of intrinsic clearance in HLM [3]: about 15%
Ki at 0.25 h [4]: 328 µM
microsomal CLint [5]: 31.5 µL/min/mg
microsomal CLint (CYP3A4): 23.3 µL/min/mg
microsomal CLint (FMO3): 8.19 µL/min/mg
fm (Rel. Clint), CYP3A4 share of oxidative metabolism in HLM (human liver microsomes): 74%
fm (Rel. Clint), FMO3 / hepatic FMO share of oxidative metabolism in HLM (human liver microsomes): 26%
biliary elimination, share of total [6, 7]: 1%
elimination by intestinal excretion/secretion, share of total [6, 7]: 8%
elimination by hepatic metabolism, share of total ([6]; human, integrated estimate): approx. 84%
elimination by renal excretion, share of total ([6]; human, integrated estimate): 7%
